Molecules are shown by their SMILES. The source made the active and inactive calls. The calls are words filed in the database; no cut-off is given here.

Data set [1] has as its system Human immunodeficiency virus 1. The experiment in a line: Inhibition of recombinant HIV-1 GFP-tagged protease expressed in HEK293 cells assessed as increase in GFP-tagged protease accumulation at 10 uM after 24 hrs by Western blot analysis. The data set is classed as cell-based.
A short description of data set [2]: Inhibition of wild-type recombinant HIV-1 protease expressed in Escherichia coli using Abz-Thr-Ile-Nle-Phe(p-NO2)-Gln-Arg-NH2 as substrate by fluorescence assay. On the set-up: species or system Human immunodeficiency virus 1.
The subject of data set [3] is Human immunodeficiency virus 1. Nature of the data set: Inhibition of recombinant HIV-1 GFP-tagged protease expressed in HEK293 cells assessed as increase in GFP-tagged protease accumulation after 24 hrs by fluorescence microscopic analysis. It is filed as cell-based.
Data set [4] has as its system Human immunodeficiency virus 1. Nature of the data set: Inhibition of recombinant HIV-1 GFP-tagged protease expressed in HEK293 cells assessed as increase in GFP-tagged protease accumulation at 10 to 30 uM after 24 hrs by flow cytometric analysis. The data set is classed as cell-based.
A further data set concerns HEK293. The experiment in a line: (§1) Cytotoxicity against HEK293 cells after 24 hrs by MTT assay. The data set is classed as cell-based. As to conditions: human, hek293, 24 h.
Data set [5] is described as follows: as §1. The following applies: human, HEK293 cells. It is filed as cell-based.
Data set [6] concerns Human immunodeficiency virus 1. Nature of the data set: Inhibition of recombinant HIV-1 GFP-tagged protease expressed in HEK293 cells assessed as increase in GFP-tagged protease accumulation at 10 uM after 24 hrs by flow cytometric analysis. It is filed as cell-based.

Consider `COc1ccc(S(=O)(=O)N(CC(C)C)C[C@@H](O)[C@H](Cc2ccccc2)NC(=O)c2ccc3[nH]ccc3c2)cc1OC`, for which, in data set [1], the “Inhibition (qualitative activity call)” value is “Active”. Besides, in data set [2], the 50% inhibitory concentration (IC50) came out at 2 nM. Moreover, the inhibition entry in data set [3] and in data set [4] was “Active” in each case. In addition, the Activity result in the data set on HEK293 is listed as “Dose-dependent effect”. In data set [5], this compound came in with a CC50 at 24 h greater than 200000 nM.
As for `COc1ccc(S(=O)(=O)N(CC(C)C)C[C@@H](O)[C@H](Cc2ccccc2)NC(=O)c2ccc3occc3c2)cc1OC`, the “Inhibition (qualitative activity call)” value in data set [1] is “Active”. The half-maximal inhibitory concentration (IC50) in data set [2] worked out at 1.1 nM. The inhibition result in data set [3] and in data set [4] was “Active” each time. Also, the Activity result in the data set on HEK293 was “Dose-dependent effect”. The same compound showed a 50% cytotoxic concentration (CC50) at 24 h in data set [5] greater than 200000 nM.
With `CC(C)CN(C[C@@H](O)[C@H](Cc1ccccc1)NC(=O)O[C@H]1CO[C@H]2OCC[C@H]21)S(=O)(=O)c1ccc(N)cc1`, the “Inhibition (qualitative activity call)” value in data set [1] was “Active”. Also, the inhibition entry in data set [3] and in data set [6] was “Active” in each case.
For `COc1ccc(S(=O)(=O)N(CC(C)C)C[C@@H](O)[C@H](Cc2ccccc2)NC(=O)c2ccc3sccc3c2)cc1OC`, in data set [1], the “Inhibition (qualitative activity call)” value was “Active”. Besides, in data set [2], the half-inhibitory concentration (IC50) was found to be 13 nM. Moreover, the inhibition result in data set [3] and in data set [4] was “Active” throughout. Further, the Activity result in the data set with HEK293 is “Dose-dependent effect”. This compound also showed a CC50 at 24 h in data set [5] greater than 200000 nM.
Take `COc1ccc(S(=O)(=O)N(CC(C)C)C[C@@H](O)CNC(=O)c2ccc3sccc3c2)cc1OC`: the IC50 in data set [2] stood at 15 nM.
Still for that read-out and setting: with `COc1ccc(S(=O)(=O)N(CC(C)C)C[C@@H](O)CNC(=O)c2ccc3[nH]ccc3c2)cc1OC` the figure was 4000 nM.
Still for that read-out and setting: with `COc1ccc(S(=O)(=O)N(CC(C)C)C[C@@H](O)CNC(=O)c2ccc3occc3c2)cc1OC` the figure was 1 nM.
